Measurements reported in patent US20070112053A1, “Pharmaceutical compositions and methods using temozolomide and a protein kinase inhibitor” (priority 2005, published 2007).

System: U87MG (glioblastoma) xenograft tumors
Assay: U87MG glioblastoma xenograft tumor growth in nude mice
Format: in vivo
Settings: for inhibition of U87MG glioblastoma xenograft tumor growth: TMZ alone, ip Day 1-5
Procedure: The following human glioblastoma xenograft model may be employed to ascertain the efficacy of the formulations and methods described herein. Human glioblastoma cell U87MG are inoculated subcutaneously into female nude mice (age 4-6 wks). Xenograft tumor growth is followed by measuring the tumor size using a caliper. Once tumor size reaches about 100 mm3 (average), mice carrying the xenograft tumors are grouped and treated with different doses of the combination of TMZ and a PKC inhibitor (e.g., enzastaurin). Likewise, human glioblastoma cell U373 may be used to establish a xenograft model.
The combination of TMZ and a PKC inhibitor (e.g., enzastaurin) for treating a cell proliferative disorder was examined using a glioblastoma xenograft model. In particular, the glioblastoma model U87MG was used to evaluate the efficacy of PKC inhibitor enzataurin as a single agent compared to TMZ (Temodar®), a chemotherapeutic drug clinically approved for treating brain tumor, as a single agent. In addition, this study looked at the efficacy of the combination of TMZ with enzastaurin in comparison to the efficacy with either agent alone.
In brief, nude mice were inoculated with U87-MG glioblastoma cells and the resultant tumors treated with control, or various concentrations of TMZ, enzastaurin, or a combination of both TMZ and enzastaurin. More specifically, 150 female nude mice (strain NU/NU), aged 5-7 weeks old were purchased from Charles River Laboratory. Four million glioblastoma cells U87-MG were mixed 1:1 (volume:volume) with Matrigel (Cat. #354234, BD Biosciences) on ice and mixtures were inoculated subcutaneously to the flank of each mouse. Dosing was initiated when the tumors reached an average size of 90 mm^3. The dosing volume was 0.2 mL. Tumor size and body weight was measured two to three times per week. […] Note that there were 10 nude mice per dosing regimen.

Structure (SMILES) | effect on tumor growth as single agent (enzastaurin alone, 37.5 or 75 mpk qd, po) | inhibition of U87MG glioblastoma xenograft tumor growth (5 mpk qd) [%] | inhibition of U87MG glioblastoma xenograft tumor growth (10 mpk qd) [%] | inhibition of U87MG glioblastoma xenograft tumor growth (20 mpk qd) [%]
Cn1cc(C2=C(c3cn(C4CCN(Cc5ccccn5)CC4)c4ccccc34)C(=O)NC2=O)c2ccccc21 [enzastaurin] | little effect on tumor growth |  |  | 
Cn1nnc2c(C(N)=O)ncn2c1=O [TMZ, 3,4-dihydro-3-methyl-4-oxoimidazo[5,1-d]-as-tetazine-8-carboxamide] |  | 98 | 102 | 103
